# Source: patent publication US4839342A, “Method of increasing tear production by topical administration of cyclosporin” (University of Georgia Research Foundation, Inc., priority 1987, dated 1989)
# System: aqueous tear production
# Assay: Schirmer tear test in dogs with aqueous tear deficiency / KCS
# Type: in vivo, dog
# From the text: The Schirmer tear test is a test of aqueous tear production. The test depends upon observing the extent of wetting of a strip of filter paper placed over the lower lid of an eye for a specified time. Standardized strips are commercially available. The strip is folded at a notched marking and is then placed over the edge of the lateral one-third of the eyelid. The strip is usually left in place for a period of time while the patient looks straight ahead in dim light.
# The degree of wetting of the paper is measured in mm from the notch. For human patients, a normal end point is 5 mm of wetting at five minutes. For canine patients, the normal tear production is 14 to 20 mm. of wetting at one minute.
# [1] = Example 3 English Bulldog, three drops of 2% pilocarpine by mouth, after two hours
SMILES,"Schirmer tear test value, left eye [1] [mm/minute]","Schirmer tear test value, right eye [1] [mm/minute]","Schirmer tear test values, both eyes (Example 4 Miniature Poodle, one drop 2% pilocarpine by mouth two times daily with ophthalmic petrolatum, after two weeks) [mm/minute]","benefit of treatment (tear deficiency, conjunctivitis) (Example 1 Poodle, topical, both eyes twice daily for nine weeks)"
CC[C@@H]1C(=O)OC[C@@H]1Cc1cncn1C [pilocarpine],10,0,0,
C[C@@H]1C[C@H]2[C@@H]3CCC4=CC(=O)C=C[C@]4(C)[C@@]3(F)[C@@H](O)C[C@]2(C)[C@@]1(O)C(=O)CO [dexamethasone],,,,without benefit
